Reference: the NIST ThermoML archive (doi:10.1021/je600554h)
± gives the expanded uncertainty stated by the source.

Details: 101.33 kPa, Liquid; for viscosity: Capillary tube (Ostwald / Ubbelohde) method

Row | Structure (SMILES) | mass density (273.15 K) | viscosity (273.15 K) | mass density (278.15 K) | viscosity (278.15 K) | mass density (283.15 K) | viscosity (283.15 K) | mass density (288.15 K) | viscosity (288.15 K) | mass density (293.15 K) | viscosity (293.15 K) | mass density (298.15 K) | viscosity (298.15 K) | mass density (303.15 K) | viscosity (303.15 K) | mass density (308.15 K) | viscosity (308.15 K) | mass density (313.15 K) | viscosity (313.15 K) | mass density (318.15 K) | mass density (323.15 K) | other results
1 | CCCCCCCC [octane] | 718.58 ± 0.6 kg/m3 | 0.718 ± 0.009 mPa·s | 714.61 ± 0.61 kg/m3 | 0.671 ± 0.009 mPa·s | 710.62 ± 0.62 kg/m3 | 0.623 ± 0.009 mPa·s | 706.62 ± 0.62 kg/m3 | 0.584 ± 0.009 mPa·s | 702.61 ± 0.63 kg/m3 | 0.545 ± 0.009 mPa·s | 698.57 ± 0.64 kg/m3 | 0.514 ± 0.009 mPa·s | 694.52 ± 0.64 kg/m3 | 0.486 ± 0.009 mPa·s | 690.44 ± 0.65 kg/m3 | 0.459 ± 0.009 mPa·s | 686.35 ± 0.65 kg/m3 | 0.434 ± 0.009 mPa·s | 682.23 ± 0.66 kg/m3 | 678.09 ± 0.67 kg/m3 | viscosity (318.15 K): 0.415 ± 0.009 mPa·s; viscosity (323.15 K): 0.394 ± 0.009 mPa·s; mass density (328.15 K): 673.92 ± 0.67 kg/m3; viscosity (328.15 K): 0.375 ± 0.009 mPa·s; mass density (333.15 K): 669.71 ± 0.68 kg/m3; viscosity (333.15 K): 0.357 ± 0.008 mPa·s; mass density (338.15 K): 665.51 ± 0.69 kg/m3; mass density (343.15 K): 661.24 ± 0.69 kg/m3; mass density (348.15 K): 656.96 ± 0.7 kg/m3; mass density (353.15 K): 652.63 ± 0.71 kg/m3; mass density (358.15 K): 648.26 ± 0.72 kg/m3; mass density (363.15 K): 643.85 ± 0.72 kg/m3
2 | CCCCCCC [heptane] | 700.75 ± 0.62 kg/m3 | 0.526 ± 0.009 mPa·s | 696.59 ± 0.62 kg/m3 | 0.495 ± 0.009 mPa·s | 692.42 ± 0.63 kg/m3 | 0.465 ± 0.009 mPa·s | 688.22 ± 0.64 kg/m3 | 0.438 ± 0.009 mPa·s | 684 ± 0.64 kg/m3 | 0.415 ± 0.009 mPa·s | 679.75 ± 0.65 kg/m3 | 0.392 ± 0.009 mPa·s | 675.48 ± 0.66 kg/m3 | 0.372 ± 0.008 mPa·s | 671.19 ± 0.66 kg/m3 | 0.354 ± 0.008 mPa·s | 666.86 ± 0.67 kg/m3 | 0.336 ± 0.008 mPa·s | 662.5 ± 0.68 kg/m3 | 658.11 ± 0.68 kg/m3 | mass density (328.15 K): 653.68 ± 0.69 kg/m3; mass density (333.15 K): 649.22 ± 0.7 kg/m3; mass density (338.15 K): 644.72 ± 0.71 kg/m3; mass density (343.15 K): 640.17 ± 0.71 kg/m3; mass density (348.15 K): 635.58 ± 0.72 kg/m3; mass density (353.15 K): 630.41 ± 0.73 kg/m3; mass density (358.15 K): 626.34 ± 0.74 kg/m3
3 | COC(C)(C)C [2-methoxy-2-methylpropane] | 761.34 ± 0.25 kg/m3 | 0.443 ± 0.009 mPa·s | 756.14 ± 0.26 kg/m3 | 0.417 ± 0.009 mPa·s | 751.02 ± 0.26 kg/m3 | 0.392 ± 0.008 mPa·s | 745.85 ± 0.27 kg/m3 | 0.37 ± 0.008 mPa·s | 740.65 ± 0.27 kg/m3 | – | 735.4 ± 0.27 kg/m3 | – | 730.1 ± 0.28 kg/m3 | – | 724.82 ± 0.28 kg/m3 | – | 719.42 ± 0.29 kg/m3 | – | 713.96 ± 0.29 kg/m3 | – | –
